“And” between values parts separate entries of the source, which are not always exact repeats. Equal values may be shown once. Inconclusive results and toxic doses are left out. Rule as the data show it: active = T/C of 150% or more; inactive = T/C below 125%.
Tested on: L1210 leukemia ip in BDF1 mice, survival T/C
Assay: NCI In Vivo Anticancer Drug Screen. Data for tumor model L1210 Leukemia (intraperitoneal) in B6D2F1 (BDF1) mice
Conditions: higher = longer survival
In short: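 Tumor cells were implanted, animals were treated, and survival was followed. The result divides the treated measurement by the vehicle-control measurement.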

[1] = endpoint: mean survival time, dose: 100.0 mg/kg/injection, schedule: Q01DX009 (ip), vehicle: saline with Tween-80
[2] = endpoint: mean survival time, dose: 200.0 mg/kg/injection, schedule: Q01DX009 (ip), vehicle: saline with Tween-80
[3] = endpoint: mean survival time, dose: 100.0 mg/kg/injection, schedule: Q04DX003 (ip), vehicle: saline with Tween-80
[4] = endpoint: mean survival time, dose: 200.0 mg/kg/injection, schedule: Q04DX003 (ip), vehicle: saline with Tween-80
[5] = endpoint: mean survival time, dose: 400.0 mg/kg/injection, schedule: Q04DX003 (ip), vehicle: saline with Tween-80
[6] = endpoint: mean survival time, dose: 100.0 mg/kg/injection, schedule: Q01DX009 (ip), vehicle: Klucel (hydroxypropylcellulose) (HPC)
[7] = endpoint: mean survival time, dose: 100.0 mg/kg/injection, schedule: Q01DX001 (ip), vehicle: Klucel (hydroxypropylcellulose) (HPC)
[8] = endpoint: mean survival time, dose: 100.0 mg/kg/injection, schedule: Q01DX009 (ip), vehicle: saline
[9] = endpoint: mean survival time, dose: 100.0 mg/kg/injection, schedule: Q04DX003 (ip), vehicle: saline
[10] = endpoint: mean survival time, dose: 200.0 mg/kg/injection, schedule: Q01DX001 (ip), vehicle: Klucel (hydroxypropylcellulose) (HPC)
[11] = endpoint: mean survival time, dose: 200.0 mg/kg/injection, schedule: Q04DX003 (ip), vehicle: saline
[12] = endpoint: mean survival time, dose: 200.0 mg/kg/injection, schedule: Q01DX009 (ip), vehicle: Klucel (hydroxypropylcellulose) (HPC)
[13] = endpoint: mean survival time, dose: 400.0 mg/kg/injection, schedule: Q01DX009 (ip), vehicle: Klucel (hydroxypropylcellulose) (HPC)
[14] = endpoint: mean survival time, dose: 75.0 mg/kg/injection, schedule: Q01DX001 (ip), vehicle: saline

Measured: T/C

CN=C(NC)c1ccc(NC(=O)c2cc(C(=O)Nc3ccc(C(=NC)NC)cc3)cc([N+](=O)[O-])c2)cc1
inactive: endpoint: mean survival time, dose: 2.0 mg/kg/injection, schedule: Q01DX Z (ip), vehicle: water 97 % of control | endpoint: mean survival time, dose: 4.0 mg/kg/injection, schedule: Q01DX Z (ip), vehicle: water 100 % of control | endpoint: mean survival time, dose: 7.5 mg/kg/injection, schedule: Q01DX Z (ip), vehicle: saline 100 % of control | endpoint: mean survival time, dose: 7.5 mg/kg/injection, schedule: Q01DX Z (ip), vehicle: water 112 % of control | endpoint: mean survival time, dose: 15.0 mg/kg/injection, schedule: Q01DX Z (ip), vehicle: saline 96 % of control and 110 % of control | endpoint: mean survival time, dose: 15.0 mg/kg/injection, schedule: Q01DX Z (ip), vehicle: water 108 % of control

Cc1cc(N(CCCl)CCCl)ccc1N=Nc1ccccc1
inactive: endpoint: median survival time, dose: 100.0 mg/kg/injection, schedule: Q01DX009 (ip), vehicle: Klucel (hydroxypropylcellulose) (HPC) 98 % of control | endpoint: median survival time, dose: 200.0 mg/kg/injection, schedule: Q01DX009 (ip), vehicle: Klucel (hydroxypropylcellulose) (HPC) 97 % of control | endpoint: median survival time, dose: 400.0 mg/kg/injection, schedule: Q01DX009 (ip), vehicle: Klucel (hydroxypropylcellulose) (HPC) 93 % of control

NNC(=O)c1ccc(N)cc1
inactive: endpoint: mean survival time, dose: 50.0 mg/kg/injection, schedule: Q01DX001 (ip), vehicle: carboxymethylcellulose (CMC) 95 % of control | endpoint: mean survival time, dose: 50.0 mg/kg/injection, schedule: Q01DX009 (ip), vehicle: saline with Tween-80 93 % of control | endpoint: mean survival time, dose: 100.0 mg/kg/injection, schedule: Q01DX001 (ip), vehicle: carboxymethylcellulose (CMC) 86 % of control | [1] 104 % of control | endpoint: mean survival time, dose: 200.0 mg/kg/injection, schedule: Q01DX001 (ip), vehicle: carboxymethylcellulose (CMC) 95 % of control | [2] 100 % of control | endpoint: mean survival time, dose: 400.0 mg/kg/injection, schedule: Q01DX001 (ip), vehicle: carboxymethylcellulose (CMC) 103 % of control

O=C(O)c1ccccc1C(=O)Nc1ccccc1Cl
inactive: [3] 96 % of control | [4] 102 % of control | [5] 102 % of control

CCS/C(Cl)=C(\Cl)SCC
inactive: endpoint: mean survival time, dose: 25.0 mg/kg/injection, schedule: Q01DX009 (ip), vehicle: Klucel (hydroxypropylcellulose) (HPC) 101 % of control | endpoint: mean survival time, dose: 50.0 mg/kg/injection, schedule: Q01DX009 (ip), vehicle: Klucel (hydroxypropylcellulose) (HPC) 106 % of control | [6] 102 % of control and 109 % of control

CCOc1cc[n+]([O-])cc1
inactive: endpoint: mean survival time, dose: 50.0 mg/kg/injection, schedule: Q01DX009 (ip), vehicle: saline 90 % of control | [7] 96 % of control | [8] 90 % of control | [9] 100 % of control | [10] 108 % of control | endpoint: mean survival time, dose: 200.0 mg/kg/injection, schedule: Q01DX009 (ip), vehicle: saline 90 % of control | [11] 96 % of control

COc1cc2ccc3c4cc5c(cc4cnc3c2cc1OC)OCO5
inactive: [1] 102 % of control | [3] 89 % of control | [2] 98 % of control | [4] 87 % of control | endpoint: mean survival time, dose: 400.0 mg/kg/injection, schedule: Q01DX009 (ip), vehicle: saline with Tween-80 106 % of control | [5] 89 % of control

S=C(SSC(=S)N1CCOCC1)N1CCOCC1
inactive: [7] 88 % of control | [9] 93 % of control | [10] 101 % of control | [11] 101 % of control

CCOC(=O)c1c(O)csc1C
inactive: [6] 93 % of control | endpoint: mean survival time, dose: 100.0 mg/kg/injection, schedule: Q04DX003 (ip), vehicle: Klucel (hydroxypropylcellulose) (HPC) 98 % of control | [12] 90 % of control | endpoint: mean survival time, dose: 200.0 mg/kg/injection, schedule: Q04DX003 (ip), vehicle: Klucel (hydroxypropylcellulose) (HPC) 101 % of control | [13] 109 % of control | endpoint: mean survival time, dose: 400.0 mg/kg/injection, schedule: Q04DX003 (ip), vehicle: Klucel (hydroxypropylcellulose) (HPC) 97 % of control

CNC(=O)NCCCCCCCCCCC(=O)O
inactive: [6] 104 % of control | [12] 91 % of control | [13] 106 % of control

CC(C#N)OC(=O)c1ccccc1 (centres undefined)
inactive: endpoint: mean survival time, dose: 8.75 mg/kg/injection, schedule: Q01DX009 (ip), vehicle: acetone 96 % of control | endpoint: mean survival time, dose: 12.5 mg/kg/injection, schedule: Q01DX001 (ip), vehicle: saline 100 % of control | endpoint: mean survival time, dose: 17.5 mg/kg/injection, schedule: Q01DX009 (ip), vehicle: acetone 95 % of control | endpoint: mean survival time, dose: 25.0 mg/kg/injection, schedule: Q01DX001 (ip), vehicle: saline 105 % of control | endpoint: mean survival time, dose: 35.0 mg/kg/injection, schedule: Q01DX009 (ip), vehicle: acetone 91 % of control | endpoint: mean survival time, dose: 35.0 mg/kg/injection, schedule: Q04DX003 (ip), vehicle: saline 95 % of control | endpoint: mean survival time, dose: 50.0 mg/kg/injection, schedule: Q01DX009 (ip), vehicle: acetone 94 % of control

CC(=O)OC(C)CC[P+](c1ccccc1)(c1ccccc1)c1ccccc1 (centres undefined)
inactive: endpoint: mean survival time, dose: 75.0 mg/kg/injection, schedule: Q01DX001 (ip), vehicle: other 104 % of control | endpoint: mean survival time, dose: 150.0 mg/kg/injection, schedule: Q01DX001 (ip), vehicle: other 106 % of control

CCOC(=O)c1ccc2ccccc2[n+]1C
inactive: [14] 89 % of control | endpoint: mean survival time, dose: 150.0 mg/kg/injection, schedule: Q01DX001 (ip), vehicle: saline 94 % of control | endpoint: mean survival time, dose: 300.0 mg/kg/injection, schedule: Q01DX001 (ip), vehicle: saline 91 % of control

O=Cc1ccc(/C=C2\NC(=O)NC2=O)cc1
inactive: endpoint: mean survival time, dose: 25.0 mg/kg/injection, schedule: Q01DX009 (ip), vehicle: water 90 % of control | endpoint: mean survival time, dose: 50.0 mg/kg/injection, schedule: Q01DX009 (ip), vehicle: water 92 % of control | endpoint: mean survival time, dose: 100.0 mg/kg/injection, schedule: Q01DX009 (ip), vehicle: water 96 % of control | endpoint: mean survival time, dose: 200.0 mg/kg/injection, schedule: Q01DX009 (ip), vehicle: water 93 % of control

COc1cc2ccc3c(c2cc1OC)C=[N+](C)CC3
inactive: endpoint: mean survival time, dose: 100.0 mg/kg/injection, schedule: Q01DX009 (ip), vehicle: saline sonified 120 % of control | endpoint: mean survival time, dose: 100.0 mg/kg/injection, schedule: Q04DX003 (ip), vehicle: saline sonified 98 % of control | endpoint: mean survival time, dose: 200.0 mg/kg/injection, schedule: Q01DX009 (ip), vehicle: saline sonified 114 % of control | endpoint: mean survival time, dose: 200.0 mg/kg/injection, schedule: Q04DX003 (ip), vehicle: saline sonified 93 % of control | endpoint: mean survival time, dose: 400.0 mg/kg/injection, schedule: Q04DX003 (ip), vehicle: saline sonified 102 % of control

CC1(ON(c2cc(Cl)cc(Cl)c2)C2(C)c3ccccc3-c3ccccc32)c2ccccc2-c2ccccc21
inactive: [3] 88 % of control | [4] 97 % of control

C[n+]1ccccc1/C=C/c1ccc(O)c2ccccc12
inactive: endpoint: mean survival time, dose: 15.0 mg/kg/injection, schedule: Q01DX001 (ip), vehicle: saline 97 % of control | endpoint: mean survival time, dose: 30.0 mg/kg/injection, schedule: Q01DX001 (ip), vehicle: saline 91 % of control | endpoint: mean survival time, dose: 60.0 mg/kg/injection, schedule: Q01DX001 (ip), vehicle: saline 103 % of control | [14] 103 % of control

CC(c1ccc(Br)cc1)N(C)C (centres undefined)
inactive: endpoint: mean survival time, dose: 10.0 mg/kg/injection, schedule: Q01DX001 (ip), vehicle: saline 102 % of control | endpoint: mean survival time, dose: 20.0 mg/kg/injection, schedule: Q01DX001 (ip), vehicle: saline 93 % of control | endpoint: mean survival time, dose: 40.0 mg/kg/injection, schedule: Q01DX001 (ip), vehicle: saline 98 % of control | endpoint: mean survival time, dose: 80.0 mg/kg/injection, schedule: Q01DX001 (ip), vehicle: saline 98 % of control

Cc1cc(-c2cc(C)c(O)c(C(C)(C)C)c2)cc(C(C)(C)C)c1O
inactive: endpoint: mean survival time, dose: 25.0 mg/kg/injection, schedule: Q04DX002 (ip), vehicle: gum acacia 95 % of control | endpoint: mean survival time, dose: 50.0 mg/kg/injection, schedule: Q04DX002 (ip), vehicle: gum acacia 95 % of control | endpoint: mean survival time, dose: 100.0 mg/kg/injection, schedule: Q04DX002 (ip), vehicle: gum acacia 91 % of control

O=C(Nc1ccc(S(=O)(=O)O)cc1)c1ccc(C(=O)Nc2ccc(S(=O)(=O)O)cc2)cc1
inactive: endpoint: mean survival time, dose: 30.0 mg/kg/injection, schedule: Q01DX Z (ip), vehicle: saline 91 % of control | endpoint: mean survival time, dose: 60.0 mg/kg/injection, schedule: Q01DX Z (ip), vehicle: saline 97 % of control | endpoint: mean survival time, dose: 120.0 mg/kg/injection, schedule: Q01DX Z (ip), vehicle: saline 93 % of control

O=C(Cn1ccc(=O)[nH]c1=O)c1ccco1
inactive: [9] 102 % of control | [11] 107 % of control | endpoint: mean survival time, dose: 400.0 mg/kg/injection, schedule: Q04DX003 (ip), vehicle: saline 98 % of control

CCC(C)C(CCN1CCCC1)(CNC(=O)CN(CC)CC)c1cccc2ccccc12 (centres undefined)
inactive: [8] 95 % of control

— PubChem BioAssay AID248 (DTP/NCI, 2004)
